One assay has as its system MDA-MB-231 cells. Description: Cell viability assay, antiproliferative activity. Type of assay: cell-based. The settings on record: Homo sapiens; MDA-MB-231, 72 h; 10e and 11n results from NCI; read-out: Antiproliferative Activity IC50 MDA-MB-231, 72 h. From the text:
Selected β-lactam compounds were next evaluated in the triple negative cell line MDA-MB-231 (Table 4). […] These cancers are difficult to treat since they are generally not responsive to hormone therapies such as the selective oestrogen receptor modulator (SERM) tamoxifen, or aromatase inhibitors such as anastrozole, or to the monoclonal antibody Herceptin, which targets the HER2 receptor. There are fewer treatment options available for TNBC compared with ER+, PR+ and HER2+ breast cancers and the prognosis is poorer. […]. The human breast carcinoma cell line MCF-7 was purchased from the European Collection of Animal Cell Cultures (ECACC). Triple negative breast cancer Hs578T cells and its invasive variant Hs578Ts(i)8 were a kind gift from Dr. Susan McDonnell, School of Chemical and Bioprocess Engineering, University College Dublin. U266 cells were a gift from Dr. Tony McElligott, School of Medicine, St James’s Hospital, Trinity College Dublin. HT-29 cells were purchased from the European Collection of Cell Cultures (originating from a human adenocarcinoma of the colon). The human breast carcinoma cell line MDA-MB-231 and the HL-60 cells derived from a patient with acute myeloid leukaemia were both obtained from ECACC (Salisbury, UK). The SW-480 cells were a kind gift from Dr. Brian Flood, School of Biochemistry and Immunology, Trinity College Dublin. HEK-293T (normal epithelial embryonic kidney cells) were cultured in Dulbecco’s Modified Eagle’s Medium (DMEM) with GlutaMAXTM-I in the absence of non-essential amino acids. Human breast cancer MCF-7 cells and multiple myeloma U266 cells were cultured in Minimum Essential Media (MEM) with GlutaMAX™-I, supplemented with 1% (v/v) non-essential amino acids, 10% 2(v/v) foetal bovine serum (FBS) and 1% (v/v) penicillin/streptomycin 5000 U/mL. MDA-MB-231 cells were maintained in DMEM supplemented with 10% (v/v) foetal bovine serum, 2 mM L-glutamine and 100 μg/mL penicillin/streptomycin (complete medium). Colon cancer HT-29 and SW-480 and triple negative breast cancer Hs578T and its invasive variant Hs578T8i were cultured in DMEM with GlutaMAX™-I, with the same supplement in the absence of non-essential amino acids. Leukaemia HL-60 cancer cells were cultured in Roswell Park Memorial Institute Media (RPMI-1640) with GlutaMAX™-I, supplemented with 10% FCS media, and 100 μg/mL penicillin/streptomycin as above. Cell numbers were monitored using a haemocytometer. Cell culture flasks were incubated in a humidified incubator (5% CO2/95% air) at 37 °C. All cell lines were sub-cultured three times per week with trypsinisation using TrypLE Express (1X) required for adherent cell lines.
. All stock solutions and serial dilution in ethanol/DMSO were stored at -20 °C. All cells were seeded at a density of 2.5 × 10^4 cells/mL in a 96-well plate (200 μL per well). The cells were incubated in a […] atmosphere at 37 °C for 24 h, then treated with test compound (2 μL of stock solutions per 200-microlitre well) in ethanol to obtain a concentration range of 1 nM–200 μM for the study. The plates were then re-incubated for a further 72 h. Control wells contained an equivalent volume of the vehicle ethanol or DMSO (1% v/v). MTT cell viability assay: The culture medium was removed, and the cells were washed with phosphate buffered saline (PBS, […]). MTT (dissolved in PBS, […]) was added to obtain a final concentration of MTT (1 mg/mL). Cells were incubated at 37 °C for 3 h in the dark. Solubilisation was commenced by the addition of DMSO ([…]) and the cells were maintained at 20 °C in the dark for 20 min before reading the absorbance to ensure complete colour diffusion. The absorbance value of control cells (no added compound) was set to 100% cell viability and absorbance versus cell density per well was determined to assess cell viability using Graph-Pad Prism software. […]

Assay [1] concerns MCF-7 cells. As to conditions: MCF-7, 72 h, previously reported compounds, cited from earlier work.
Assay [2] has as its system MCF-7 cells. The assay is described as follows: Lactate dehydrogenase (LDH) assay for cytotoxicity. Type of assay: cell-based. The settings on record: Homo sapiens, MCF7; MCF-7, compound concentration 10 μM, 24 h; read-out: Lactate Dehydrogenase assay: % cell lysis (cell death). The procedure: The toxicity and selectivity of 10n towards normal cells was investigated in the non-tumourigenic cell line HEK-293T (normal human epithelial embryonic kidney cells). […] The cytotoxic effect of selected 3-chloro-β-lactams 10e, 10f, 10i, 10n and 3,3-dichloro-β-lactams 11e and 11n in MCF-7 cells was initially determined using the lactate dehydrogenase (LDH) assay.
The cytotoxicity of selected compounds was determined using the CytoTox 96 non-radioactive cytotoxicity assay (Promega Corporation, Madison, WI, USA). Briefly, MCF-7 cells were seeded in a 96-well plate (200 μL per well), at a density of 2.5 × 10^4 cells/mL, and incubated for 24 h. The cells were then treated with selected β-lactam compounds as described above for the cell viability assay. […] Supernatant (50 μL) was removed from each well to a 96-well plate. Reconstituted ‘CytoTox 96® Reagent (50 μL) was added to each well and the plate was placed in the dark at 20 °C for 30 min. ‘Stop solution’ (50 μL) was added to each well and the samples were analysed at 490 nm using a Dynatech MR5000 plate reader. The percentage cell death at 10 μM was calculated.

Like-named read-outs stand apart in the source and are kept apart here.

A word on the IC50: it is the concentration at which inhibition is half-maximal. Regarding `CCOc1ccc([C@H]2[C@H](Cl)C(=O)N2c2cc(OC)c(OC)c(OC)c2)cc1` (relative stereo) [Compound 10f], the IC50 with MDA-MB-231 cells was 78 ± 8 nM; in the assay on MCF-7 cells [1] (footnote g), 130 ± 17 nM. Moreover, the cytotoxicity at 10 µM in the assay with MCF-7 cells [2] worked out at 4%.

As for `COc1ccc(C2N(c3cc(OC)c(OC)c(OC)c3)C(=O)C2(Cl)Cl)cc1` (stereo not drawn) [Compound 11e], the results for the concentration for half-maximal inhibition (IC50) in the assay on MDA-MB-231 cells and in the assay with MCF-7 cells [1] (footnote g) were 297 ± 40 nM and 119 ± 12 nM, respectively. Moreover, the cytotoxicity at 10 µM with MCF-7 cells [2] amounted to 10%.

With `COc1ccc(C2N(c3cc(OC)c(OC)c(OC)c3)C(=O)C2(Cl)Cl)cc1C` (stereo not drawn) [Compound 11o], the 50% inhibitory concentration (IC50) in the assay on MCF-7 cells [1] (footnote h) is 747 ± 60 nM.

Take `COc1cc(N2C(=O)C(Cl)(Cl)C2c2ccc(SC)cc2)cc(OC)c1OC` (stereo not drawn) [Compound 11i]: the IC50 in the assay with MCF-7 cells [1] (footnote g) was 291 ± 30 nM.

Consider `CCOc1ccc([C@@H]2N(c3cc(OC)c(OC)c(OC)c3)C(=O)C2(Cl)Cl)cc1` [Compound 11f], for which the IC50 in the assay with MDA-MB-231 cells was 389 ± 50 nM; with MCF-7 cells [1] (footnote g), 164 ± 15 nM.

As for `COc1cc(N2C(=O)C(Cl)C2c2ccc(SC)cc2)cc(OC)c1OC` (stereo not drawn) [Compound 10i], in the assay on MCF-7 cells [1] (footnote g), the IC50 is 73 ± 4 nM. For the same compound, in the assay on MCF-7 cells [2], the cytotoxicity at 10 µM came to 3%.
